pIC50: −log10 of the molar value. Calls of active or inactive are those of the source. The rule behind the calls is not given here.
Assays:
U-87 MG [1] = test: Antiproliferative activity against human U87 cells assessed as inhibition of cell growth inhibition incubated for 48 hrs by CCK-8 assay; assay type: functional, cell-based, U-87MG ATCC
Huh-7 = test: Antiproliferative activity against human Huh-7 cells assessed as inhibition of cell growth inhibition incubated for 48 hrs by CCK-8 assay; assay type: functional, cell-based; settings: Huh-7, 48 h
[2] = Cytotoxicity against HUVEC cells assessed as inhibition of cell growth inhibition incubated for 48 hrs by CCK-8 assay; assay type: toxicity, cell-based; settings: human
U-87 MG [3] = test: Induction of cell cycle arrest in human U87 cells assessed as accumulation of cells at […] at 1 uM measured after 48 hrs by PI staining based flow cytometry analysis (reference value: 8.55%); assay type: functional, U-87MG ATCC
U-87 MG [4] = test: Induction of cell cycle arrest in human U87 cells assessed as accumulation of cells at […] at 2 uM measured after 48 hrs by PI staining based flow cytometry analysis (reference value: 8.55%); assay type: functional, U-87MG ATCC
U-87 MG [5] = test: Induction of apoptosis in human U87 cells assessed as live cells at 0.3125 uM incubated for 48 hrs by Annexin V-FITC/PI staining based flow cytometry analysis (reference value: 91.7%); assay type: functional, U-87MG ATCC
U-87 MG [6] = test: Induction of apoptosis in human U87 cells assessed as live cells at 0.625 uM incubated for 48 hrs by Annexin V-FITC/PI staining based flow cytometry analysis (reference value: 91.7%); assay type: functional, U-87MG ATCC
U-87 MG [7] = test: Induction of apoptosis in human U87 cells assessed as early apoptotic cells at 0.625 uM incubated for 48 hrs by Annexin V-FITC/PI staining based flow cytometry analysis (reference value: 6.25%); assay type: functional, U-87MG ATCC
U-87 MG [8] = test: Induction of apoptosis in human U87 cells assessed as late apoptotic cells at 0.625 uM incubated for 48 hrs by Annexin V-FITC/PI staining based flow cytometry analysis (reference value: 2.08%); assay type: functional, U-87MG ATCC
U-87 MG [9] = test: Induction of apoptosis in human U87 cells assessed as live cells at 1.25 uM incubated for 48 hrs by Annexin V-FITC/PI staining based flow cytometry analysis (reference value: 91.7%); assay type: functional, U-87MG ATCC
U-87 MG [10] = test: Induction of apoptosis in human U87 cells assessed as late apoptotic cells at 2.5 uM incubated for 48 hrs by Annexin V-FITC/PI staining based flow cytometry analysis (reference value: 2.08%); assay type: functional, U-87MG ATCC
GL261-Luc = test: Antitumor activity against mouse GL261-Luc cells implanted in C57BL/6 mouse assessed as reduction in tumor cell growth at 10 mg/kg, iv administered every other day on day 0,2,4,6,8,10 and measured after 12 days by H and E staining based analysis; assay type: functional, organism-based; settings: time 12.0 day
[11] = Toxicity in C57BL/6 mouse implanted with mouse GL261-Luc cells assessed as histopathological changes in heart at 5 to 10 mg/kg, iv administered every other day on day 0,2,4,6,8,10 and measured after 12 days by H and E staining based analysis; assay type: organism-based; settings: in vivo, 288 h, dose 5-10 mg/kg, time 12 day
[12] = Toxicity in C57BL/6 mouse implanted with mouse GL261-Luc cells assessed as histopathological changes in liver at 5 to 10 mg/kg, iv administered every other day on day 0,2,4,6,8,10 and measured after 12 days by H and E staining based analysis; assay type: organism-based; settings: in vivo, 288 h, dose 5-10 mg/kg, time 12 day
[13] = Apparent permeability across apical to basolateral side in MDCK-MDR1 cells at 10 uM incubated for 90 mins by LC-MS/MS analysis; assay type: ADME, cell-based, Canis lupus familiaris; settings: dog
[14] = Apparent permeability across basolateral to apical side in MDCK-MDR1 cells at 10 uM incubated for 90 mins by LC-MS/MS analysis; assay type: ADME, cell-based, Canis lupus familiaris; settings: dog
U-87MG ATCC [15] = test: Downregulation of TUBA1B gene expression in human U87 cells by transcriptome analysis; assay type: functional, cell-based
U-87MG ATCC [16] = test: Downregulation of TUBB gene expression in human U87 cells by transcriptome analysis; assay type: functional, cell-based
U-87MG ATCC [17] = test: Downregulation of TUBB4B gene expression in human U87 cells by transcriptome analysis; assay type: functional, cell-based
U-87MG ATCC [18] = test: Upregulation of CGNL1 gene expression in human U87 cells by transcriptome analysis; assay type: functional, cell-based
U-87MG ATCC [19] = test: Upregulation of NECTIN4 gene expression in human U87 cells by transcriptome analysis; assay type: functional, cell-based
Tubulin (Homo sapiens) = Tubulin (Homo sapiens) (UniProt P68371+Q9H4B7+P0DPH7+P68366+Q13509+Q71U36+P04350+Q3ZCM7+P07437+P68363+Q9BQE3+Q6PEY2+Q13885+Q9BVA1+Q9BUF5); test: Inhibition of tubulin (unknown origin) polymerization assessed as reduction in polymerization rate by fluorescence based analysis; assay type: protein-complex assay; settings: dose 6-12 µM

In the case of `Cc1ccc2ccc3c(c2n1)OC(N)=C(C#N)C3c1ccccc1` (configuration not stated), the pIC50 (U-87 MG [1]) was 6.05, the pIC50 (Huh-7) was 5.92 and the IC50 at 48 h [2] was > 10000 nM. For the same molecule, the Activity (U-87 MG [3]) was 24.6%, the Activity (U-87 MG [4]) was 56.2% and the Activity (U-87 MG [5]) was 88.1%. For the same molecule, the Activity (U-87 MG [6]) was 75.9%, the Activity (U-87 MG [7]) was 16.1% and the Activity (U-87 MG [8]) was 7.88%. For the same molecule, the Activity (U-87 MG [9]) was 73.9%, the Activity (U-87 MG [10]) was 16.8% and the Activity (GL261-Luc) was “Active”. For the same molecule, the Activity [11] was “Non-Toxic”, the Activity [12] was “Non-Toxic” and the Papp A→B at 1.5 h, 10 µM [13] was 33.7 ×10⁻⁶ cm/s. The Papp B→A at 1.5 h, 10 µM [14] was 25.8 ×10⁻⁶ cm/s, the Activity (U-87MG ATCC [15]) was “Active” and the Activity (U-87MG ATCC [16]) was “Active”. The Activity (U-87MG ATCC [17]) was “Active”, the Activity (U-87MG ATCC [18]) was “Active” and the Activity (U-87MG ATCC [19]) was “Active”. The inhibition (Tubulin (Homo sapiens)) was “Dose-Dependent Effect”.

Source: ChEMBL document CHEMBL5543095 (Eur J Med Chem, 2024)
